Results published in patent publication US5493007A, “Platelet aggregation inhibitors having high specificity for GPIIBIIIA” (Genentech, Inc., priority 1994, dated 1996).
*1 amine or outer side, *2 acyl side, *3 side chain or, on linkers, in order; H or OH if unused. Where a SMILES comes first, the peptide text is derived from it. Bridges are numbered along the chain shown (N, C = ends). [ ]: non-standard residue; d: D form. Cys(O)(CH2CO) = O=C([C@H](C[S+]([O-])CC(=O)[*:3])N[*:1])[*:2]; Aad = N[C@@H](CCCC(=O)O)C(=O)O; Pen = CC(C)(S)[C@H](N)C(=O)O; dOrn = NCCC[C@@H](N)C(=O)O

What follows are compounds tested on New Zealand White rabbits (assay: Rabbit peripheral blood flow (PBF) by observation of ear vessels). Details: rabbit, i.v. bolus 0.5 mg/kg + 0.012 mg/kg infused over 60 minutes; measured visually.
Type: in vivo
Set-up: key to PBF: NORMAL: Normal flow is defined as ears that appear pink to red, with no visible constriction of the major blood vessels; Decreased flow applies to ears that have constricted vessels resulting in cold, pallid ears for up to 40 minutes following the start of the inhibitor infusion
Method: Catheters are flushed and locked after every sample.
For the experiments summarized in Table 1, PBF was monitored by observation of the condition of the blood vessels in the rabbits' ears, prior to and during the infusion. Normal flow is defined as ears that appear pink to red, with no visible constriction of the major blood vessels. Decreased flow applies to ears that have constricted vessels resulting in cold, pallid ears for up to 40 minutes following the start of the inhibitor infusion.
`N=C(N)NCCC[C@H](NC(=O)[C@@H]1C[S+]([O-])CC(=O)N[C@H](Cc2ccc(O)cc2)C(=O)N[C@@H](CCCNC(=N)N)C(=O)NCC(=O)N[C@@H](CC(=O)O)C(=O)N1)C(N)=O` (single isomer, unassigned) [drawing 33] was tested, and the PBF was “NORMAL”.

Same assay, conditions: rabbit, i.v. bolus 1.5 mg/kg + 0.036 mg/kg infused over 60 minutes; measured visually
`N=C(N)NCCC[C@@H]1NC(=O)[C@@H](Cc2ccc(O)cc2)NC(=O)C(CCCCN)SC[C@@H](C(=O)O)NC(=O)[C@H](CC(=O)O)NC(=O)CNC1=O` (single isomer, unassigned) [drawing 22] was tested, and the PBF was “NORMAL”. With `N=C(N)NCCC[C@H](NC(=O)[C@@H]1C[S+]([O-])CC(=O)N[C@H](Cc2ccc(O)cc2)C(=O)N[C@@H](CCCNC(=N)N)C(=O)NCC(=O)N[C@@H](CC(=O)O)C(=O)N1)C(N)=O` (single isomer, unassigned) [drawing 34] the PBF was “NORMAL”. `N=C(N)NCCC[C@@H]1NC(=O)[C@@H](Cc2ccc(O)cc2)NC(=O)C[S+]([O-])C[C@@H](C(=O)N[C@@H](CCCN)C(N)=O)NC(=O)[C@H](CC(=O)O)NC(=O)CNC1=O` (stereo partly drawn) was tested, and the PBF was “NORMAL”. For `N=C(N)NCCC[C@@H]1NC(=O)[C@@H](Cc2ccc(O)cc2)NC(=O)[C@H](CCCNC(=N)N)SC[C@@H](C(=O)O)NC(=O)[C@H](CC(=O)O)NC(=O)CNC1=O`, the PBF was “NORMAL”. In the case of `NCCCC[C@@H]1NC(=O)[C@@H](Cc2ccc(O)cc2)NC(=O)C(c2ccccc2)SC[C@@H](C(=O)O)NC(=O)[C@H](CC(=O)O)NC(=O)CNC1=O` (single isomer, unassigned) [drawing 13], the PBF is reported as “NORMAL”. `N=C(N)NCCC[C@@H]1NC(=O)[C@@H](Cc2ccc(O)cc2)NC(=O)CSC[C@@H](C(=O)N[C@H](CCCN)C(N)=O)NC(=O)[C@H](CC(=O)O)NC(=O)CNC1=O` [drawing 18] ({CH2CO}-[dY]RGDC[dOrn]-NH2; thioether N-5) was tested, and the PBF was “NORMAL”. In the case of `N=C(N)NCCC[C@@H]1NC(=O)[C@@H](Cc2ccc(O)cc2)NC(=O)[C@@H](CCCNC(=N)N)SC[C@@H](C(=O)O)NC(=O)[C@H](CC(=O)O)NC(=O)CNC1=O`, the PBF is reported as “NORMAL”. With `N=C(N)NCCC[C@H](NC(=O)[C@@H]1CCCC(=O)N[C@H](Cc2ccc(O)cc2)C(=O)N[C@@H](CCCNC(=N)N)C(=O)NCC(=O)N[C@@H](CC(=O)O)C(=O)N1)C(N)=O` [drawing 28] ([dY]RGD[Aad]R-NH2; lactam N-5) the PBF was “NORMAL”. With `CC1(C)SCC(=O)N[C@H](Cc2ccc(O)cc2)C(=O)N[C@@H](CCCCN)C(=O)NCC(=O)N[C@@H](CC(=O)O)C(=O)N[C@@H]1C(=O)N[C@@H](CCCNC(=N)N)C(N)=O` [drawing 26] ({CH2CO}-[dY]KGD[Pen]R-NH2; thioether N-5) the PBF was “NORMAL”. With `CC1(C)SCC(=O)N[C@H](Cc2ccc(O)cc2)C(=O)N[C@@H](CCCCN)C(=O)NCC(=O)N[C@@H](CC(=O)O)C(=O)N[C@@H]1C(=O)O` [drawing 9] ({CH2CO}-[dY]KGD[Pen]-OH; thioether N-5) the PBF was “NORMAL”. With `N=C(N)NCCC[C@@H]1NC(=O)[C@@H](Cc2ccc(O)cc2)NC(=O)CSC[C@@H](C(=O)N[C@@H](CCCCN)C(=O)O)NC(=O)[C@H](CC(=O)O)NC(=O)CNC1=O` [drawing 32] ({CH2CO}-[dY]RGDCK-OH; thioether N-5) the PBF was “NORMAL”. In the case of `N=C(N)NCCC[C@@H]1NC(=O)[C@@H](Cc2ccc(O)cc2)NC(=O)CCC[C@@H](C(=O)N[C@@H](CCCCN)C(N)=O)NC(=O)[C@H](CC(=O)O)NC(=O)CNC1=O` [drawing 29] ([dY]RGD[Aad]K-NH2; lactam N-5), the PBF is reported as “NORMAL”. `N=C(N)NCCC[C@H](NC(=O)[C@@H]1CSCC(=O)N[C@H](Cc2ccc(O)cc2)C(=O)N[C@@H](CCCNC(=N)N)C(=O)NCC(=O)N[C@@H](CC(=O)O)C(=O)N1)C(N)=O` [drawing 15] ({CH2CO}-[dY]RGDCR-NH2; thioether N-5) was tested, and the PBF was “NORMAL”. In the case of `N=C(N)NCCC[C@@H]1NC(=O)[C@@H](Cc2ccc(O)cc2)NC(=O)C(CCCCN)SC[C@@H](C(=O)O)NC(=O)[C@H](CC(=O)O)NC(=O)CNC1=O` (single isomer, unassigned) [drawing 23], the PBF is reported as “NORMAL”.

Same assay, conditions: rabbit, i.v. bolus .375 mg/kg + 0.009 mg/kg infused over 60 minutes; measured visually
With `N=C(N)NCCC[C@@H]1NC(=O)[C@@H](Cc2ccc(O)cc2)NC(=O)C[S+]([O-])C[C@@H](C(=O)O)NC(=O)[C@H](CC(=O)O)NC(=O)CNC1=O` (stereo partly drawn) ([dY]RGD[Cys(O)(CH2CO)]-OH; lactam N-5) the PBF was “NORMAL”.

Each compound was assayed against human platelet rich plasma (PRP) (Homo sapiens, UniProt P05106+P08514) (assay: In Vitro Human Platelet Aggregation Assay). Details: human PRP; read-out: Human Platelet Aggregation IC50.
Sequence of human platelet rich plasma (PRP) (P08514 32-1039): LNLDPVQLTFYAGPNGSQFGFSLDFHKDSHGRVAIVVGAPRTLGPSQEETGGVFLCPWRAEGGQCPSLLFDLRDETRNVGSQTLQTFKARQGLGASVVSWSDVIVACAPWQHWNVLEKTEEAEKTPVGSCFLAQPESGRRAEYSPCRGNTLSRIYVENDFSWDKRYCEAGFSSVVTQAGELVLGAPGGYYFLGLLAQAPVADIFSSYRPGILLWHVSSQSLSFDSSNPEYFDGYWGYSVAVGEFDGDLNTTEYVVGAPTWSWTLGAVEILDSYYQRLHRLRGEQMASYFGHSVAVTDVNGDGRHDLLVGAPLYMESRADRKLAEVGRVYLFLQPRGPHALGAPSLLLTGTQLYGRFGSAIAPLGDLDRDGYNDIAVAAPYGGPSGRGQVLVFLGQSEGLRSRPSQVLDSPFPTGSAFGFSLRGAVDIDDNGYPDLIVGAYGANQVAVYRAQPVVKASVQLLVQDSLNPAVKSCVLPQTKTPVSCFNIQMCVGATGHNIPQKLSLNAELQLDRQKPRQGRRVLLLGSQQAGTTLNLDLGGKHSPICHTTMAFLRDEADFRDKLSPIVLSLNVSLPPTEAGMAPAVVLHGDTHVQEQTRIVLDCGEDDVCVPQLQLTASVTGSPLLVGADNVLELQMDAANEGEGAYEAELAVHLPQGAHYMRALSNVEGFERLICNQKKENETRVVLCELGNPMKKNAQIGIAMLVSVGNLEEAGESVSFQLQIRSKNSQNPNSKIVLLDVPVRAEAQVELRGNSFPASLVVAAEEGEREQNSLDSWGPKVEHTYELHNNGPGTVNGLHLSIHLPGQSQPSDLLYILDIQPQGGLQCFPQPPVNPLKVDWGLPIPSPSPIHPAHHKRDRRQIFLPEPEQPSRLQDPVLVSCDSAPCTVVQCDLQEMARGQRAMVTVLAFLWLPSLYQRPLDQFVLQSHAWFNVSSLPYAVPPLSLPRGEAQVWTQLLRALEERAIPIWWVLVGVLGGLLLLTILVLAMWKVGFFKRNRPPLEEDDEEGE
Sequence of human platelet rich plasma (PRP) (P05106 27-788): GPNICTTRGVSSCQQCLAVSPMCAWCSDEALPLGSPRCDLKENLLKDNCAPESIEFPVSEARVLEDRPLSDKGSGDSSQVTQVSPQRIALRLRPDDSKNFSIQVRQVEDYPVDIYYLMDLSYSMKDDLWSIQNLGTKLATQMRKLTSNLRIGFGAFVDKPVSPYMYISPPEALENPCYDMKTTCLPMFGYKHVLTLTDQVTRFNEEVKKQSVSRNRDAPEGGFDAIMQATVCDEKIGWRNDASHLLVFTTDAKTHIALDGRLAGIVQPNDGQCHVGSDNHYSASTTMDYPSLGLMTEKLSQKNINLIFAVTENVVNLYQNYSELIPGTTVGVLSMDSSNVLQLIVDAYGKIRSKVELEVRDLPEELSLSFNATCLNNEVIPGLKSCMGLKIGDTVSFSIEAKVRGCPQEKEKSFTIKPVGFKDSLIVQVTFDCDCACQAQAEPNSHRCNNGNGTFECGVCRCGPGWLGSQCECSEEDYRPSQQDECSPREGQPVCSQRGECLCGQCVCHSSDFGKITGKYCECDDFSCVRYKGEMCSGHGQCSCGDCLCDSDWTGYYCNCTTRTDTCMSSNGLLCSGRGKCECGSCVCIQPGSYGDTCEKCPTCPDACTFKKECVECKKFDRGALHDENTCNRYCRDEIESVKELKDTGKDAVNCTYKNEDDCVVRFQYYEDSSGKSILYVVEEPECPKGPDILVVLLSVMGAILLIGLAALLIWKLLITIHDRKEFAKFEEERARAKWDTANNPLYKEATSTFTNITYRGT
Type: cell-based
Method: Platelet aggregation assays are performed in human platelet rich plasma (PRP). Fifty milliliters of whole human blood (9 parts) is drawn on 3.6% sodium citrate (1 part) from a donor who has not taken aspirin or related medications for at least two weeks. The blood is centrifuged at 160×g for 10 minutes at 22° C. and allowed to stand for 5 minutes after which the PRP is decanted. Platelet poor plasma (PPP) is isolated from the remaining blood after centrifugation at 2000×g for 25 minutes. The platelet count of the PRP is diluted to about 300,000 platelets per microliter with PPP.
A 225 μl aliquot of PRP plus 25 μl of either a dilution of the test inhibitor sample or a control (PBS) is incubated for 5 minutes in a Chrono-log Whole Blood Aggregometer at 25° C. An aggregating agent (collagen, 1 μg/ml; U46619, 100 ng/ml; or ADP, 17 μM) is added and the transmission is recorded.
Compound “cyclo-S-acetyl-dTyr--Arg--Gly--Asp--Cys--Tyr--Arg--NH2 [7/43]” has an IC50 of 350 nM. Compound `N=C(N)NCCC[C@@H]1NC(=O)[C@@H](Cc2ccc(O)cc2)NC(=O)CSC[C@@H](C(=O)N[C@@H](CCCCN)C(=O)O)NC(=O)[C@H](CC(=O)O)NC(=O)CNC1=O` [7/25, cyclo-S-acetyl-dTyr--Arg--Gly--Asp--Cys--Lys--OH] ({CH2CO}-[dY]RGDCK-OH; thioether N-5) has an IC50 of 370 nM.
